30 compounds from US20090018134A1, “Compounds - 945” (AstraZeneca AB, priority 2007, published 2009) can be followed below.

The test deals with T1, mTOR (Homo sapiens, UniProt P42345).
T1 construct: FLAG; made in house
The test is described as follows: In Vitro mTOR Kinase Assay (Echo), Test (a)(ii). Type of test: biochemical. An outline of the steps: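 FLAG-tagged human mTOR truncation (residues 1362-2549) expressed in HEK293 cells and FLAG-purified. Compounds dispensed acoustically, reaction 2 h at room temperature, stopped with EDTA. Phosphorylation of biotinylated peptide detected by AlphaScreen with anti-p70 S6K (T389) antibody overnight; IC50 reported.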

Setting [1] is: read-out: mTOR Kinase Assay (Echo).
The mark [2] stands for this setting: table of enzyme assay Test (a)(ii), read-out: Test (a)(ii) IC50.

Like-named read-outs stand apart in the source and are kept apart here.

T1 sequence (P42345 1362-2549): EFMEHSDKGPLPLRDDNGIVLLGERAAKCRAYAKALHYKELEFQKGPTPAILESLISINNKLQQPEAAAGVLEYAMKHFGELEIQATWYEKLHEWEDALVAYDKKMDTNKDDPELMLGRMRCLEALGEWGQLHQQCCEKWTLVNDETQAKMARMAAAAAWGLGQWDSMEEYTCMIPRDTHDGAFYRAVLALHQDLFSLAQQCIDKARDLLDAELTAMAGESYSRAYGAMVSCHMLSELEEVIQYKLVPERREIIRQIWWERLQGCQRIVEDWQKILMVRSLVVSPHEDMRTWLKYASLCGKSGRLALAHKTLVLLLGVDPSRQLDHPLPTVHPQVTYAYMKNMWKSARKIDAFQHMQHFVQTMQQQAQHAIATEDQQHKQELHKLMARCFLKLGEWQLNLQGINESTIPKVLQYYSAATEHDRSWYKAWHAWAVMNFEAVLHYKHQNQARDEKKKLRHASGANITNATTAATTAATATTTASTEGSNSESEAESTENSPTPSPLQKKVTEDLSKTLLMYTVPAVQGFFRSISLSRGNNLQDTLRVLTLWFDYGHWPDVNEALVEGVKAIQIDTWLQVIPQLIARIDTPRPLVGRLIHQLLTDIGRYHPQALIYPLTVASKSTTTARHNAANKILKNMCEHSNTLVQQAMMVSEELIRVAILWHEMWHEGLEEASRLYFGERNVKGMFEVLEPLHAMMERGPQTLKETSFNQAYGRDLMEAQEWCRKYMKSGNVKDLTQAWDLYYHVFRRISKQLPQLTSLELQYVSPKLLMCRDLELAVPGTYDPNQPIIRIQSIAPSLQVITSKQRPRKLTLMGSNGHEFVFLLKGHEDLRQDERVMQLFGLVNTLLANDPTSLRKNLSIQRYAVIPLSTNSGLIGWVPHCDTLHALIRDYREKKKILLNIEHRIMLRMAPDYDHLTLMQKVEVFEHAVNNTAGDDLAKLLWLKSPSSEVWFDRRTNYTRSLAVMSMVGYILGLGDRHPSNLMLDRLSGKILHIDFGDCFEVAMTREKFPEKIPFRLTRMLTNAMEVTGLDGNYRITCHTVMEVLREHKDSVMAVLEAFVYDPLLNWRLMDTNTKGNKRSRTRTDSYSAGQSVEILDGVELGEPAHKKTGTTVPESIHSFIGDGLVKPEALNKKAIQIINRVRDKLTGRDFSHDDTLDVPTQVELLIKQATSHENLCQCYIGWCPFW

As to `CC(C)S(=O)(=O)C1(c2cc(N3CCOC[C@@H]3C)nc(-c3ccc(NC(=O)Nc4cnn(C)c4)cc3)n2)CC1` [Example 7m, 1-[4-[4-[(3S)-3-methylmorpholin-4-yl]-6-(1-propan-2-ylsulfonylcyclopropyl)pyrimidin-2-yl]phenyl]-3-(1-methylpyrazol-4-yl)urea], the IC50 under setting [1] was determined as 5.04 nM. For the compound `CNC(=O)Nc1ccc(-c2nc(N3CCOC[C@@H]3C)cc(C3(S(=O)(=O)c4ccc(F)cc4)CC3)n2)cc1` [Example 8, 1-[4-[4-[1-(4-Fluorophenyl)sulfonylcyclopropyl]-6-[(3S)-3-methylmorpholin-4-yl]pyrimidin-2-yl]phenyl]-3-methyl-urea], the IC50 under setting [1] worked out at 0.576 nM and the IC50 under setting [2] was 0.959 nM. With `CCNC(=O)Nc1ccc(-c2nc(N3CCOC[C@@H]3C)cc(C3(S(=O)(=O)c4ccc(F)cc4)CC3)n2)cc1` [Example 8a, 1-ethyl-3-[4-[4-[1-(4-fluorophenyl)sulfonylcyclopropyl]-6-[(3S)-3-methylmorpholin-4-yl]pyrimidin-2-yl]phenyl]urea], the IC50 under setting [1] came to 0.96 nM. The same measure, in the same setting: the value for `C[C@H]1COCCN1c1cc(C2(S(=O)(=O)c3ccc(F)cc3)CC2)nc(-c2ccc(NC(=O)NC3CC3)cc2)n1` [Example 8b, 3-cyclopropyl-1-[4-[4-[1-(4-fluorophenyl)sulfonylcyclopropyl]-6-[(3S)-3-methylmorpholin-4-yl]pyrimidin-2-yl]phenyl]urea] was 1.23 nM; that for `CC(C)NC(=O)Nc1ccc(-c2nc(N3CCOC[C@@H]3C)cc(C3(S(=O)(=O)c4ccc(F)cc4)CC3)n2)cc1` [Example 8c, 1-[4-[4-[1-(4-fluorophenyl)sulfonylcyclopropyl]-6-[(3S)-3-methylmorpholin-4-yl]pyrimidin-2-yl]phenyl]-3-propan-2-yl-urea] was 1.85 nM. The same measure, in the same setting: the value for `C[C@H]1COCCN1c1cc(C2(S(=O)(=O)c3ccc(F)cc3)CC2)nc(-c2ccc(NC(=O)NC3CCC3)cc2)n1` [Example 8d, 3-cyclobutyl-1-[4-[4-[1-(4-fluorophenyl)sulfonylcyclopropyl]-6-[(3S)-3-methylmorpholin-4-yl]pyrimidin-2-yl]phenyl]urea] was 1.34 nM; that for `C[C@H]1COCCN1c1cc(C2(S(=O)(=O)c3ccc(F)cc3)CC2)nc(-c2ccc(NC(=O)NC(C)(C)CO)cc2)n1` [Example 8f, 1-[4-[4-[1-(4-fluorophenyl)sulfonylcyclopropyl]-6-[(3S)-3-methylmorpholin-4-yl]pyrimidin-2-yl]phenyl]-3-(1-hydroxy-2-methyl-propan-2-yl)urea] was 8.82 nM.

In the case of `C[C@H]1COCCN1c1cc(C2(S(=O)(=O)c3ccc(F)cc3)CC2)nc(-c2ccc(NC(=O)NCCN(C)C)cc2)n1` [Example 8g, 3-(2-dimethylaminoethyl)-1-[4-[4-[1-(4-fluorophenyl)sulfonylcyclopropyl]-6-[(3S)-3-methylmorpholin-4-yl]pyrimidin-2-yl]phenyl]urea], the IC50 came to 61.3 nM under setting [1] and 78.4 nM under setting [2]. With `CCCNC(=O)Nc1ccc(-c2nc(N3CCOC[C@@H]3C)cc(C3(S(=O)(=O)c4ccc(F)cc4)CC3)n2)cc1` [Example 8h, 3-[4-[4-[1-(4-fluorophenyl)sulfonylcyclopropyl]-6-[(3S)-3-methylmorpholin-4-yl]pyrimidin-2-yl]phenyl]-1-propyl-urea], the IC50 under setting [1] turned out to be 1.76 nM. Turning to `CC(C)CNC(=O)Nc1ccc(-c2nc(N3CCOC[C@@H]3C)cc(C3(S(=O)(=O)c4ccc(F)cc4)CC3)n2)cc1` [Example 8i, 1-[4-[4-[1-(4-fluorophenyl)sulfonylcyclopropyl]-6-[(3S)-3-methylmorpholin-4-yl]pyrimidin-2-yl]phenyl]-3-(2-methylpropyl)urea], the IC50 under setting [1] is 19.8 nM. Consider `C[C@H]1COCCN1c1cc(C2(S(=O)(=O)c3ccc(F)cc3)CC2)nc(-c2ccc(NC(=O)NCCCO)cc2)n1` [Example 8j, 1-[4-[4-[1-(4-fluorophenyl)sulfonylcyclopropyl]-6-[(3S)-3-methylmorpholin-4-yl]pyrimidin-2-yl]phenyl]-3-(3-hydroxypropyl)urea], for which the IC50 under setting [1] came out at 0.751 nM. Turning to `C[C@H]1COCCN1c1cc(C2(S(=O)(=O)c3ccc(F)cc3)CC2)nc(-c2ccc(NC(=O)Nc3ccc(C(F)(F)F)cc3)cc2)n1` [Example 8k, 1-[4-[4-[1-(4-fluorophenyl)sulfonylcyclopropyl]-6-[(3S)-3-methylmorpholin-4-yl]pyrimidin-2-yl]phenyl]-3-[4-(trifluoromethyl)phenyl]urea], the IC50 under setting [1] amounted to 17.3 nM. For the compound `C[C@H]1COCCN1c1cc(C2(S(=O)(=O)c3ccc(F)cc3)CC2)nc(-c2ccc(NC(=O)Nc3ccccn3)cc2)n1` [Example 8l, 1-[4-[4-[1-(4-fluorophenyl)sulfonylcyclopropyl]-6-[(3S)-3-methylmorpholin-4-yl]pyrimidin-2-yl]phenyl]-3-pyridin-2-yl-urea], the IC50 under setting [2] amounted to 8.13 nM. With `C[C@H]1COCCN1c1cc(C2(S(=O)(=O)c3ccc(F)cc3)CC2)nc(-c2ccc(NC(=O)Nc3cnn(C)c3)cc2)n1` [Example 8m, 1-[4-[4-[1-(4-fluorophenyl)sulfonylcyclopropyl]-6-[(3S)-3-methylmorpholin-4-yl]pyrimidin-2-yl]phenyl]-3-(1-methylpyrazol-4-yl)urea], the IC50 under setting [1] came out at 1.36 nM. Consider `C[C@H]1COCCN1c1cc(C2(S(=O)(=O)C3CCCC3)CC2)nc(-c2ccc(NC(=O)NC3CC3)cc2)n1` [Example 9, 1-[4-[4-(1-Cyclopentylsulfonylcyclopropyl)-6-[(3S)-3-methylmorpholin-4-yl]pyrimidin-2-yl]phenyl]-3-cyclopropyl-urea], for which the IC50 under setting [1] came out at 1.8 nM.

For `C[C@H]1COCCN1c1cc(C2(S(=O)(=O)C3CCCC3)CC2)nc(-c2ccc(NC(=O)NC3CCC3)cc2)n1` [Example 9a], under setting [1], the IC50 amounted to 12.9 nM.

For `CC(C)NC(=O)Nc1ccc(-c2nc(N3CCOC[C@@H]3C)cc(C3(S(=O)(=O)C4CCCC4)CC3)n2)cc1` [Example 9d], the IC50 under setting [1] was determined as 15.1 nM. With `CCNC(=O)Nc1ccc(-c2nc(N3CCOC[C@@H]3C)cc(C3(S(=O)(=O)C4CCCC4)CC3)n2)cc1` [Example 9e], the IC50 under setting [1] was determined as 1.87 nM.

Take `CCCNC(=O)Nc1ccc(-c2nc(N3CCOC[C@@H]3C)cc(C3(S(=O)(=O)C4CCCC4)CC3)n2)cc1` [Example 9h]: under setting [1], the IC50 worked out at 5.7 nM. The same measure, in the same setting: then `CNC(=O)Nc1ccc(-c2nc(N3CCOC[C@@H]3C)cc(C3(S(=O)(=O)C4CCCC4)CC3)n2)cc1` [Example 9i], with 2.4 nM; and `C[C@H]1COCCN1c1cc(C2(S(=O)(=O)C3CCCC3)CC2)nc(-c2ccc(NC(=O)NC(C)(C)CO)cc2)n1` [Example 9k], with 11.5 nM.

Take `C[C@H]1COCCN1c1cc(C2(S(=O)(=O)c3ccccc3C(F)(F)F)CC2)nc(-c2ccc(NC(=O)NC3CC3)cc2)n1` [Example 10, 3-Cyclopropyl-1-[4-[4-[(3S)-3-methylmorpholin-4-yl]-6-[1-[2-(trifluoromethyl)phenyl]sulfonylcyclopropyl]pyrimidin-2-yl]phenyl]urea]: the IC50 under setting [1] turned out to be 4.48 nM. In the case of `C[C@H]1COCCN1c1cc(C2(S(=O)(=O)c3ccccc3C(F)(F)F)CC2)nc(-c2ccc(NC(=O)NC3CCC3)cc2)n1` [Example 10a, 3-cyclobutyl-1-[4-[4-[(3S)-3-methylmorpholin-4-yl]-6-[1-[2-(trifluoromethyl)phenyl]sulfonylcyclopropyl]pyrimidin-2-yl]phenyl]urea], the IC50 under setting [1] was found to be 39.5 nM. Take `C[C@H]1COCCN1c1cc(C2(S(=O)(=O)c3ccccc3C(F)(F)F)CC2)nc(-c2ccc(NC(=O)Nc3ccccn3)cc2)n1` [Example 10b, 1-[4-[4-[(3S)-3-methylmorpholin-4-yl]-6-[1-[2-(trifluoromethyl)phenyl]sulfonylcyclopropyl]pyrimidin-2-yl]phenyl]-3-pyridin-2-yl-urea]: the IC50 under setting [1] came to 26.6 nM.

For `CC(C)CNC(=O)Nc1ccc(-c2nc(N3CCOC[C@@H]3C)cc(C3(S(=O)(=O)c4ccccc4C(F)(F)F)CC3)n2)cc1` [Example 10c, 1-[4-[4-[(3S)-3-methylmorpholin-4-yl]-6-[1-[2-(trifluoromethyl)phenyl]sulfonylcyclopropyl]pyrimidin-2-yl]phenyl]-3-(2-methylpropyl)urea], the IC50 under setting [1] amounted to 147 nM. In the case of `CC(C)NC(=O)Nc1ccc(-c2nc(N3CCOC[C@@H]3C)cc(C3(S(=O)(=O)c4ccccc4C(F)(F)F)CC3)n2)cc1` [Example 10d, 1-[4-[4-[(3S)-3-methylmorpholin-4-yl]-6-[1-[2-(trifluoromethyl)phenyl]sulfonylcyclopropyl]pyrimidin-2-yl]phenyl]-3-propan-2-yl-urea], the IC50 under setting [1] worked out at 43.2 nM. For `CCNC(=O)Nc1ccc(-c2nc(N3CCOC[C@@H]3C)cc(C3(S(=O)(=O)c4ccccc4C(F)(F)F)CC3)n2)cc1` [Example 10e, 1-ethyl-3-[4-[4-[(3S)-3-methylmorpholin-4-yl]-6-[1-[2-(trifluoromethyl)phenyl]sulfonylcyclopropyl]pyrimidin-2-yl]phenyl]urea], the IC50 under setting [1] was determined as 6.91 nM. In the case of `C[C@H]1COCCN1c1cc(C2(S(=O)(=O)c3ccccc3C(F)(F)F)CC2)nc(-c2ccc(NC(=O)NCCN(C)C)cc2)n1` [Example 10f, 3-(2-dimethylaminomethyl)-1-[4-[4-[(3S)-3-methylmorpholin-4-yl]-6-[1-[2-(trifluoromethyl)phenyl]sulfonylcyclopropyl]pyrimidin-2-yl]phenyl]urea], the IC50 under setting [1] is 174 nM.

On to `C[C@H]1COCCN1c1cc(C2(S(=O)(=O)c3ccccc3C(F)(F)F)CC2)nc(-c2ccc(NC(=O)NCCO)cc2)n1` [Example 10g], for which, under setting [1], the IC50 was determined as 1.56 nM. The same measure, in the same setting: the value for `CCCNC(=O)Nc1ccc(-c2nc(N3CCOC[C@@H]3C)cc(C3(S(=O)(=O)c4ccccc4C(F)(F)F)CC3)n2)cc1` [Example 10h, 3-[4-[4-[(3S)-3-methylmorpholin-4-yl]-6-[1-[2-(trifluoromethyl)phenyl]sulfonylcyclopropyl]pyrimidin-2-yl]phenyl]-1-propyl-urea] was 26.8 nM.
